Assay results: PubChem BioAssay AID1963433 (Molecular Pharmacology Branch, DTP, NCI, 2024)
Values joined by “and” are separate entries in the source; they are usually repeats but may differ in a detail not shown here. Equal values may be shown once.

Test system: 772245-204-R-J1-PDC complex spheroid growth
Experiment: Anticancer human tumor 772245-204-R-J1-PDC patient-derived rhabdomyosarcoma cell line growth inhibition [Asc]
Conditions: for viability, T/C: stronger effect = lower value; active means viability on the fitted dose curve at most 10% of control; inactive means the rest
Procedure, shortened: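 Complex spheroids combining tumor cells with HUVEC endothelial cells and human MSCs, at 37 degrees C, 5% CO2; agents tested alone or combined, half-log dilutions from at or near clinical Cmax, or 10 microM if Cmax unknown.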

[1] = curve of first compound, second compound 0.03 µM
[2] = curve of first compound, second compound 0.0949 µM
[3] = curve of first compound, second compound 0.3 µM
[4] = curve of first compound, second compound 0.949 µM
[5] = curve of first compound, second compound 3 µM
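Further: compound exposure lasted seven days.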
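Wherever viability, T/C is given: 100% = DMSO vehicle control viability.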

C=CC(=O)N1CCN(c2nc(=O)n(-c3c(C)ccnc3C(C)C)c3nc(-c4c(O)cccc4F)c(F)cc23)C(C)C1 (configuration not stated) + Cc1c(S(C)(=O)=O)c(-c2cc(F)cc(N3CCN(c4ccc(NS(=O)(=O)c5ccc(NC(CCN6CCC(C(=O)OCCCP(=O)(O)O)CC6)CSc6ccccc6)c(S(=O)(=O)C(F)(F)F)c5)cc4)CC3)c2)c(-c2ccc(Cl)cc2)n1C(C)C
active: viability, T/C (second compound 3.16 µM, first compound 10 µM) 5.71% | viability, T/C (second compound 10 µM, first compound 10 µM) 6.87%
6320 nM: IC50 (curve of first compound, second compound 0.1 µM)
57.9 nM: IC50 (curve of first compound, second compound 3.16 µM)
2430 nM: IC50 (curve of first compound, second compound 0.316 µM)
< 31.6 nM: IC50 (curve of first compound, second compound 1 µM) | IC50 (curve of first compound, second compound 10 µM)
inactive: viability, T/C (second compound 0.1 µM, first compound 0.0316 µM) 85% | viability, T/C (second compound 0.1 µM, first compound 0.1 µM) 79.7% | viability, T/C (second compound 0.1 µM, first compound 0.316 µM) 89.5% | viability, T/C (second compound 0.1 µM, first compound 1 µM) 67.7% | viability, T/C (second compound 0.1 µM, first compound 3.16 µM) 69.5% | viability, T/C (second compound 0.1 µM, first compound 10 µM) 38.9% | viability, T/C (second compound 0.316 µM, first compound 0.0316 µM) 66.9% | viability, T/C (second compound 0.316 µM, first compound 0.1 µM) 69.2% | viability, T/C (second compound 0.316 µM, first compound 0.316 µM) 68.2% | viability, T/C (second compound 0.316 µM, first compound 1 µM) 59.9% | viability, T/C (second compound 0.316 µM, first compound 3.16 µM) 47.1% | viability, T/C (second compound 0.316 µM, first compound 10 µM) 11.8% | viability, T/C (second compound 1 µM, first compound 0.0316 µM) 49.9% | viability, T/C (second compound 1 µM, first compound 0.1 µM) 43% | viability, T/C (second compound 1 µM, first compound 0.316 µM) 44.9% | viability, T/C (second compound 1 µM, first compound 1 µM) 29.3% | viability, T/C (second compound 1 µM, first compound 3.16 µM) 15.1% | viability, T/C (second compound 1 µM, first compound 10 µM) 15.1% | viability, T/C (second compound 3.16 µM, first compound 0.0316 µM) 41.8% | viability, T/C (second compound 3.16 µM, first compound 0.1 µM) 62.3% | viability, T/C (second compound 3.16 µM, first compound 0.316 µM) 37.9% | viability, T/C (second compound 3.16 µM, first compound 1 µM) 26.5% | viability, T/C (second compound 3.16 µM, first compound 3.16 µM) 15.8% | viability, T/C (second compound 10 µM, first compound 0.0316 µM) 48.5% | viability, T/C (second compound 10 µM, first compound 0.1 µM) 41.3% | viability, T/C (second compound 10 µM, first compound 0.316 µM) 41.3% | viability, T/C (second compound 10 µM, first compound 1 µM) 30.6% | viability, T/C (second compound 10 µM, first compound 3.16 µM) 13.5%

CNC(C)C(=O)NC1CN(S(=O)(=O)c2cccc(S(=O)(=O)N3CCC4CCC(C(=O)NC(c5ccccc5)c5ccccc5)N4C(=O)C(NC(=O)C(C)NC)C3)c2)CCC2CCC(C(=O)NC(c3ccccc3)c3ccccc3)N2C1=O (configuration not stated)
inactive: viability, T/C (compound 0.00316 µM) 94.7% and 94.4% and 79% | viability, T/C (compound 0.01 µM) 93.9% [middle of 14 runs]
> 1000 nM: IC50 (compound alone, run of 10/24/2022) | IC50 (compound alone, run of 11/15/2022) | IC50 (curve of compound)

C#Cc1c(F)ccc2cc(O)cc(-c3ncc4c(N5CC6CCC(C5)N6)nc(OCC56CCCN5CC(F)C6)nc4c3F)c12 (configuration not stated)
inactive: viability, T/C (compound 0.0316 µM) 102% and 92.9% and 100% | viability, T/C (compound 0.1 µM) 101% and 80.2% and 97.7% | viability, T/C (compound 0.316 µM) 93% and 86.2% and 90.3% | viability, T/C (compound 1 µM) 106% and 74.9% and 95.2% | viability, T/C (compound 3.16 µM) 117% and 85.7% and 91.6% | viability, T/C (compound 10 µM) 109% and 66.4% and 75.8%
> 10000 nM: IC50 (curve of compound)

CCN1CCN(Cc2ccc(Nc3ncc(F)c(-c4cc(F)c5nc(C)n(C(C)C)c5c4)n3)nc2)CC1
> 1000 nM: IC50 (curve of compound)
inactive: viability, T/C (compound 0.00316 µM) 90.5% and 99% and 71.9% | viability, T/C (compound 0.01 µM) 88.2% and 90.2% and 79.9% | viability, T/C (compound 0.0316 µM) 103% and 87.5% and 96.3% | viability, T/C (compound 0.1 µM) 99.7% and 97.4% and 104% | viability, T/C (compound 0.316 µM) 100% and 102% and 97% | viability, T/C (compound 1 µM) 112% and 121% and 102%

C=C(F)C(=O)N1CCN(c2nc(OCC3CCCN3C)nc3c2CCN(c2cccc4cccc(Cl)c24)C3)CC1CC#N (configuration not stated)
3970 nM and 4730 nM and 7910 nM: IC50 (curve of compound)
inactive: viability, T/C (compound 0.0316 µM) 92.1% and 101% and 100% | viability, T/C (compound 0.1 µM) 85.8% and 91.9% and 89.9% | viability, T/C (compound 0.316 µM) 77.3% and 99.5% and 104% | viability, T/C (compound 1 µM) 87.6% and 98.4% and 95.1% | viability, T/C (compound 3.16 µM) 62.3% and 76.7% and 101%

NC1CCC(NC2CC2c2ccccc2)CC1 (configuration not stated) + CCN1C(C(=O)NC23CCC(C(=O)O)(CC2)CC3)C(c2cccc(Cl)c2F)C2(C(=O)Nc3cc(Cl)ccc32)C12CCCCC2
> 100 nM: IC50 [1] | IC50 [2] | IC50 [3] | IC50 [4] | IC50 [5]
inactive: viability, T/C (second compound 0.03 µM, first compound 0.000316 µM) 103% | viability, T/C (second compound 0.03 µM, first compound 0.001 µM) 94.6% | viability, T/C (second compound 0.03 µM, first compound 0.00316 µM) 100% | viability, T/C (second compound 0.03 µM, first compound 0.01 µM) 86.5% | viability, T/C (second compound 0.03 µM, first compound 0.0316 µM) 108% | viability, T/C (second compound 0.03 µM, first compound 0.1 µM) 98.1% | viability, T/C (second compound 0.0949 µM, first compound 0.000316 µM) 96.3% | viability, T/C (second compound 0.0949 µM, first compound 0.001 µM) 96.3% | viability, T/C (second compound 0.0949 µM, first compound 0.00316 µM) 90.3% | viability, T/C (second compound 0.0949 µM, first compound 0.01 µM) 92.5% | viability, T/C (second compound 0.0949 µM, first compound 0.0316 µM) 84.9% | viability, T/C (second compound 0.0949 µM, first compound 0.1 µM) 93.5% | viability, T/C (second compound 0.3 µM, first compound 0.000316 µM) 106% | viability, T/C (second compound 0.3 µM, first compound 0.001 µM) 80.2% | viability, T/C (second compound 0.3 µM, first compound 0.00316 µM) 101% | viability, T/C (second compound 0.3 µM, first compound 0.01 µM) 85.5% | viability, T/C (second compound 0.3 µM, first compound 0.0316 µM) 111% | viability, T/C (second compound 0.3 µM, first compound 0.1 µM) 89.8% | viability, T/C (second compound 0.949 µM, first compound 0.000316 µM) 95.2% | viability, T/C (second compound 0.949 µM, first compound 0.001 µM) 80.8% | viability, T/C (second compound 0.949 µM, first compound 0.00316 µM) 83.6% | viability, T/C (second compound 0.949 µM, first compound 0.01 µM) 86.9% | viability, T/C (second compound 0.949 µM, first compound 0.0316 µM) 95.1% | viability, T/C (second compound 0.949 µM, first compound 0.1 µM) 96.3% | viability, T/C (second compound 3 µM, first compound 0.000316 µM) 70.2% | viability, T/C (second compound 3 µM, first compound 0.001 µM) 65.8% | viability, T/C (second compound 3 µM, first compound 0.00316 µM) 73.2% | viability, T/C (second compound 3 µM, first compound 0.01 µM) 77.9% | viability, T/C (second compound 3 µM, first compound 0.0316 µM) 73.1% | viability, T/C (second compound 3 µM, first compound 0.1 µM) 75.4%

COc1c(OCCCN2CCOCC2)ccc2c3n(c(=NC(=O)c4cnc(N)nc4)nc12)CCN3
105 nM and 175 nM and 217 nM: IC50 (curve of compound)
inactive: viability, T/C (compound 0.00316 µM) 94.7% and 116% and 107% | viability, T/C (compound 0.01 µM) 91.3% and 98.9% and 106% | viability, T/C (compound 0.0316 µM) 77% and 76.2% and 90.4% | viability, T/C (compound 0.1 µM) 46.1% and 55.2% and 63.9% | viability, T/C (compound 0.316 µM) 41.3% and 42% and 43.8% | viability, T/C (compound 1 µM) 24.4% and 25.4% and 35.3%

NC(=O)C(=Cn1cnc(-c2cc(C(F)(F)F)cc(C(F)(F)F)c2)n1)c1cncnc1 + CCN1C(C(=O)NC23CCC(C(=O)O)(CC2)CC3)C(c2cccc(Cl)c2F)C2(C(=O)Nc3cc(Cl)ccc32)C12CCCCC2
inactive: viability, T/C (second compound 0.03 µM, first compound 0.000949 µM) 88.9% | viability, T/C (second compound 0.03 µM, first compound 0.003 µM) 96.5% | viability, T/C (second compound 0.03 µM, first compound 0.00949 µM) 97.1% | viability, T/C (second compound 0.03 µM, first compound 0.03 µM) 92.4% | viability, T/C (second compound 0.03 µM, first compound 0.0949 µM) 38.5% | viability, T/C (second compound 0.03 µM, first compound 0.3 µM) 40.5% | viability, T/C (second compound 0.0949 µM, first compound 0.000949 µM) 103% | viability, T/C (second compound 0.0949 µM, first compound 0.003 µM) 93.1% | viability, T/C (second compound 0.0949 µM, first compound 0.00949 µM) 88.5% | viability, T/C (second compound 0.0949 µM, first compound 0.03 µM) 44.5% | viability, T/C (second compound 0.0949 µM, first compound 0.0949 µM) 37.2% | viability, T/C (second compound 0.0949 µM, first compound 0.3 µM) 22.6% | viability, T/C (second compound 0.3 µM, first compound 0.000949 µM) 94.7% | viability, T/C (second compound 0.3 µM, first compound 0.003 µM) 105% | viability, T/C (second compound 0.3 µM, first compound 0.00949 µM) 85.2% | viability, T/C (second compound 0.3 µM, first compound 0.03 µM) 62.8% | viability, T/C (second compound 0.3 µM, first compound 0.0949 µM) 31.1% | viability, T/C (second compound 0.3 µM, first compound 0.3 µM) 30.4% | viability, T/C (second compound 0.949 µM, first compound 0.000949 µM) 92.8% | viability, T/C (second compound 0.949 µM, first compound 0.003 µM) 88.8% | viability, T/C (second compound 0.949 µM, first compound 0.00949 µM) 84.7% | viability, T/C (second compound 0.949 µM, first compound 0.03 µM) 46.4% | viability, T/C (second compound 0.949 µM, first compound 0.0949 µM) 28.8% | viability, T/C (second compound 0.949 µM, first compound 0.3 µM) 18.1% | viability, T/C (second compound 3 µM, first compound 0.000949 µM) 69.9% | viability, T/C (second compound 3 µM, first compound 0.003 µM) 66.9% | viability, T/C (second compound 3 µM, first compound 0.00949 µM) 69.5% | viability, T/C (second compound 3 µM, first compound 0.03 µM) 17.7% | viability, T/C (second compound 3 µM, first compound 0.0949 µM) 10.8% | viability, T/C (second compound 3 µM, first compound 0.3 µM) 15.9%
28.2 nM: IC50 [4]
47.3 nM: IC50 [3]
14.5 nM: IC50 [5]
27.3 nM: IC50 [2]
75.5 nM: IC50 [1]
